Patent EP0917878A1, “REMEDIES FOR HEPATITIS” (TORAY INDUSTRIES, INC., priority 1997, dated 1998)

Biological target: T1, α4·IgG heavy chain-β1·IgG heavy chain chimeric protein heterodimer complex (chimeric protein of VLA-4 and IgG heavy chain) (Homo sapiens, UniProt P05556+P13612)
T1 construct: a chimeric molecule being composed with the extracellular region of integrin α4 and an immunoglobulin heavy chain; a chimeric molecule being composed with the extracellular region of integrin β1 and an immunoglobulin heavy chain; made in house; unpurified culture supernatant used in the assay
T1 sequence (P13612 35-977 limits assumed, change not shown): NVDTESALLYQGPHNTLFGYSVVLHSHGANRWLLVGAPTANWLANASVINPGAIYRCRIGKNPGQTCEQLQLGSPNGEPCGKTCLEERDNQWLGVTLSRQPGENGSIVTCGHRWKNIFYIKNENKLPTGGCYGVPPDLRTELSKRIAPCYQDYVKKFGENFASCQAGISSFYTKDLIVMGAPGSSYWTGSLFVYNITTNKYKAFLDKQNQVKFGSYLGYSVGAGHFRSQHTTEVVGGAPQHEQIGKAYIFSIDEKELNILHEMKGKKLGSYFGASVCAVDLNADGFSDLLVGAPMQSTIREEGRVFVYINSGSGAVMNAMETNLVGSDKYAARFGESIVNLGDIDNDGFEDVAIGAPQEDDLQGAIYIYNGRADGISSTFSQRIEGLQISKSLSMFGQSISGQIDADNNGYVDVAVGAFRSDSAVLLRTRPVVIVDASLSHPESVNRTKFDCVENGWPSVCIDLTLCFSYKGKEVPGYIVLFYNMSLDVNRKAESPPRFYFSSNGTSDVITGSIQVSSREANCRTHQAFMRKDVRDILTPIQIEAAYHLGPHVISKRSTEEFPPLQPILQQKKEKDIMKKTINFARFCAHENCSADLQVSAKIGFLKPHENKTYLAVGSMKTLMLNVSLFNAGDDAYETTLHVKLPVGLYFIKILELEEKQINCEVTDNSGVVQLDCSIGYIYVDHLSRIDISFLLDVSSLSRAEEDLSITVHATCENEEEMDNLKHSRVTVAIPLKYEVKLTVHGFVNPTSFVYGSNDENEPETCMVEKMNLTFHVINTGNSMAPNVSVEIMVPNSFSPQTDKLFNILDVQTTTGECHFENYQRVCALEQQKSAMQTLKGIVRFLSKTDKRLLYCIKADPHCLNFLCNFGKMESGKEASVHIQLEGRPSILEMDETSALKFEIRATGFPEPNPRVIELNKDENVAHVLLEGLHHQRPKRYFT
T1 sequence (P05556 21-728 limits assumed, change not shown): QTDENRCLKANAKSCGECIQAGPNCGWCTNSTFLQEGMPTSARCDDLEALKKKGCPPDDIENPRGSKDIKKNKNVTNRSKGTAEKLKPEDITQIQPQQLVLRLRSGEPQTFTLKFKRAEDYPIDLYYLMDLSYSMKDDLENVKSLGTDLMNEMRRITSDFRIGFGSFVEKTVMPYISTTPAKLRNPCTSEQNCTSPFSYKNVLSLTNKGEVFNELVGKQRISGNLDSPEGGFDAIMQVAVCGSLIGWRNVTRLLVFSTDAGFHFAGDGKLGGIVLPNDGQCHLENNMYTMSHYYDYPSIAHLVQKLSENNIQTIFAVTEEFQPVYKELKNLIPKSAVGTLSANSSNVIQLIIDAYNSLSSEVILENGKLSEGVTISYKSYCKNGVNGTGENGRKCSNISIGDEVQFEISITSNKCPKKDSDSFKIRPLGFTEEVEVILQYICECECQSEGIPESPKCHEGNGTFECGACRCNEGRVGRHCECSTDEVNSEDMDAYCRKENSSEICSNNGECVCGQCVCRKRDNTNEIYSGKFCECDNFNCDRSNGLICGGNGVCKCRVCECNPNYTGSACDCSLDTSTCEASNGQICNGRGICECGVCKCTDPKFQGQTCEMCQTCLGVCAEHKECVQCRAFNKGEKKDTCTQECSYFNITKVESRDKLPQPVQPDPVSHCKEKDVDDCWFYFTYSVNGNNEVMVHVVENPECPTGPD
T1 sequence (P01857 99-330 partner limits assumed): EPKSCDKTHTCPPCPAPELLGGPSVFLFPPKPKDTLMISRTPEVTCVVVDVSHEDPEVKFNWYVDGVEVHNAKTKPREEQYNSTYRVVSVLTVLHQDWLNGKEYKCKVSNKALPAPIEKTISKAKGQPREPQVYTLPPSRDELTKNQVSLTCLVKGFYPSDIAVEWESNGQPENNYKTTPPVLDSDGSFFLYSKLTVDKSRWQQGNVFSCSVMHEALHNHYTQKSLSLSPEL
Assay: binding of α4·IgG heavy chain-β1·IgG heavy chain chimeric protein heterodimer complex to solid phase CS-1-IgG (absorbance at 490 nm)
Conditions: for inhibition at 50 µg/mL: Concentration 50 µg/ml, read-out: Inhibition rate (%)
Experimental: At first, according to the said report (Humphries, M. J. et al., J. Biol. Chem., 262, 6886-6892 (1987)), the peptide fragment of sequence No. 13 (CS-1 peptide) was bound to rabbit IgG (Sigma), to prepare CS-1-IgG. The CS-1-IgG was diluted by PBS(-), and supplied in a 96-well immunoplate (NUNC) by 100 µl/well, and allowed to stand at 4°C for 16 hours, to be formed as a solid phase on the plate.
After completion of standing, the surface of the plate was washed with PBS(-) twice and treated with 1% BSA(heat-denatured at 80°C for 10 minutes)-PBS solution (300 µl/well) at 4°C for 3 hours to block the nonspecific reaction. Then, the solid phase CS-1-IgG and the CHO culture supernatant (100 µl) containing α4·IgG heavy chain-β1·IgG heavy chain chimeric protein heterodimer complex were reacted with each other at 30°C for 3 hours. The non-bound α4·IgG heavy chain-β1·IgG heavy chain chimeric protein heterodimer complex was removed by washing with 0.1% BSA-containing TBS buffer (150 mM NaCl, 25 mM Tris-HCl, 1 mM MnCl2, pH 7.4) twice, and the bound α4·IgG heavy chain-β1·IgG heavy chain chimeric protein heterodimer complex was detected by biotin labeled anti-human IgG antibody (Vector) as the primary antibody and avidin labeled horseradish peroxidase (Sigma) used as the secondary anti body. The surface of the plate was washed with the TBS buffer. Orthophenylenediamine was added as a substrate to it for color development, and the absorbance at 490 nm were measured.
The all peptides were synthesized by a peptide synthesizer. The peptide and 100 µl of CHO cultured supernatant solution containing α4·IgG heavy chain-β1·IgG heavy chain chimeric protein heterodimer complex were mixed at room temperature for 20 minutes, and the binding to CS-1-IgG was determined according to the method in Example 4.
Reagents and the compounds stated in literature were picked up at random, adjusted to a final concentration of 50 µg/ml, and added to the binding assay system of Example 4. Compounds showing inhibitory activity were obtained. […]

Row | inhibition at 50 µg/mL [%] | inhibition of binding to CS-1 peptide (5 mM, Fig. 1) | SMILES
1 | 87.5 | – | O=c1ccc2ccc(O)cc2o1 [7-Hydroxycoumarin]
2 | – | almost perfectly inhibited | O=C(O)CN(CCN(CC(=O)O)CC(=O)O)CC(=O)O [EDTA]
3 | 39.5 | – | C[C@H](CCC(=O)O)[C@H]1CC[C@H]2[C@@H]3C(=O)C[C@@H]4CC(=O)CC[C@]4(C)[C@H]3CC(=O)[C@]12C [Dehydrocholic acid]
